# Source: US12545668B2, “Cyclic amine derivative as agent for promoting advillin function, and novel cyclic amine derivative and pharmaceutical use thereof” (Toray Industries, Inc., priority 2018, dated 2026)
# Assays:
# [1] = Specific binding of 3H-labeled compound to membrane fraction prepared from rat dorsal root ganglion; conditions: 3H-labeled compound of Example 7, 37° C., 1 hour; unlabeled compound for non-specific binding; FIG. 2
# Experimental: A binding property of a ^3H-labeled cyclic amine derivative (I) to each of membrane fractions prepared from various tissues of a rat was evaluated, and thus, a tissue containing a molecular target of the cyclic amine derivative (I) was clarified.
# As the cyclic amine derivative (I), the compound of Example 7 was used.
# Male SD rats (manufactured by Charles River Laboratories Japan, Inc.) of 7 weeks old were used. Rats were anesthetized with isoflurane, and euthanized by exsanguination from the abdominal aorta using a syringe having an inner wall treated with a heparin sodium injection (manufactured by AY Pharmaceuticals Co., Ltd.). […]
# A homogenate sample of each tissue thus collected was prepared, using a homogenizer, by adding a homogenize buffer (sucrose (1 M), Tris-HCl (0.5 M), and 1× protease inhibitor cocktail (manufactured by Sigma Aldrich), pH 7.6) to the collected tissue. […] The resultant supernatant was ultracentrifuged at 100,000×g at 4° C. for 60 minutes, and the thus obtained precipitate was suspended in Krebs-Ringer bicarbonate buffer (manufactured by Sigma Aldrich) to quantitatively determine the amount of protein using a BCA protein assay kit (manufactured by Thermo Fisher Scientific K.K.). […]
# [2] = test system: F11 cells (rat dorsal root ganglion neuron cell line); assay: Effect of decreasing intracellular actin filaments in F11 cells with oxaliplatin-induced axonal injury (phalloidin staining); format: cell-based; conditions: F-11 rat/mouse fusion cell line, F11, 120 h, compound 10 μM with oxaliplatin 15 μM, 5 days; compared to oxaliplatin alone treated group; average of five samples; read-out: Decreasing Rate of Intracellular Actin Filament (%)
# Description: The effect of the cyclic amine derivative (I) or a pharmacologically acceptable salt thereof on the amount of intracellular actin filaments in F11 cells (rat dorsal root ganglion neuron cell line) was examined.
# As test compounds, the compounds of Examples 1, 2, 3, 4, 5, 6, 7, 8, and 9 were used.
# As compounds of comparative examples, 1-(4-(dimethylamino)piperidin-1-yl)-3-(1-ethyl-1H-imidazol-2-yl)-3-hydroxypropan-1-one (hereinafter, the compound of Comparative Example 1), 1-(4-(dimethylamino)piperidin-1-yl)-3-hydroxy-3-(1-(2,2,2-trifluoroethyl)-1H-imidazol-2-yl)propan-1-one (hereinafter, the compound of Comparative Example 2), 1-((R)-3-(dimethylamino)pyrrolidin-1-yl)-3-hydroxy-3-(1-methyl-1H-imidazol-2-yl)propan-1-one (hereinafter, the compound of Comparative Example 3), and 1-((R)-[…]-3-hydroxy-3-(1-methyl-1H-imidazol-2-yl)propan-1-one (hereinafter, the compound of Comparative Example 4) shown in Table 4 were used. The compounds of Comparative Examples 1, 2, 3, and 4 were synthesized in accordance with methods described in International Publication No. WO2016/136944.
# For peeling the F11 cells off from a culture flask, 0.25% Trypsin/EDTA (manufactured by Thermo Fisher Scientific K.K.) was added to the cells, followed by incubation at room temperature for several minutes. Thereafter, 10% fetal bovine serum-containing DMEM medium (manufactured by Thermo Fisher Scientific K.K.) was added thereto for suspension, and the resultant centrifuged at 1,500 rpm for 1 minute. After removing the resultant centrifugal supernatant, 0.5% fetal bovine serum-containing DMEM medium was added thereto for suspending cells therein, and the resultant seeded in a poly-D-lysine-coated 96 well plate (manufactured by BD Biosciences) coated with laminin (2 μg/cm^2, manufactured by Sigma Aldrich) to be cultured at 37° C. under an environment of 5% CO2. Two hours after seeding the cells, N,N-dibutyladenosine 3′,5′-phosphate (final concentration 1 mM, manufactured by Sigma Aldrich) and recombinant rat GDNF (final concentration 50 ng/mL, manufactured by PeproTech) were added thereto to culture the cells at 37° C. under an environment of 5% CO2 for 7 days for differentiation.
# Seven days after starting the culture, the medium was exchanged with 0.5% fetal bovine serum-containing DMEM medium containing oxaliplatin (final concentration 15 μM), and the resultant cultured for 5 days to induce axonal injury. Each of the compounds of Examples and Comparative Examples was caused to be contained in the medium (final concentration 10 μM) for treatment in the same manner as oxaliplatin.
# Five days after treatment with oxaliplatin and each of the compounds, the resultant cells were washed with PBS(−) three times, a 4% paraformaldehyde-phosphate buffer (manufactured by Wako Pure Chemical Industries Ltd.) was added thereto, and the resultant allowed to stand still at room temperature for 10 minutes to fix the cells. Acti-stain 670 phalloidin (manufactured by Cytoskeleton Inc.) was added thereto, and the resultant incubated at room temperature for 30 minutes to stain actin filaments. An image of the cells was acquired using IN Cell Analyzer 2200 (manufactured by GE Healthcare), and the image analyzed using IN Cell Investigator Developer Toolbox. The amount of intracellular actin filaments was indicated by the amount of fluorescence (density) of fluorescent-labeled phalloidin binding to the actin filaments.
# In a group treated with oxaliplatin alone (hereinafter, the oxaliplatin alone treated group), the amount of intracellular actin filaments increased by 5% compared to that in a group not treated with oxaliplatin. […] A decreasing rate of intracellular actin filaments, caused by each compound compared to the amount of intracellular actin filaments of the oxaliplatin alone treated group was calculated. […]
structure (smiles),measurement,setting,value
"CN(C)C1CCN(C(=O)C[C@H](O)c2nccn2C)CC1 [Example 7, (S)-1-(4-(dimethylamino)piperidin-1-yl)-3-hydroxy-3-(1-methyl-1H-imidazol-2-yl)propan-1-one]",specific binding to the membrane fraction prepared from the dorsal root ganglion,[1],significant
same,inhibition at 10 µM,[2],≥ 5%
